Consider 20 compounds from ChEMBL document CHEMBL1151144, “Annonaceous acetogenins: a review” (J Nat Prod, 1990).

Converted amounts (≈) assume the structure as drawn.

Data set [1] can be described thus: In vivo antitumor activity against mouse 3PS cells at 1.4 mg/kg relative to control. Type of data set: functional.
A further data set deals with MCF7. The data set is described as follows: Cytotoxicity against human MCF7 cells. Type of data set: functional. The conditions noted are these: for EC50: Homo sapiens, MCF7, read-out: ED50 (the source's name).
The next data set deals with A549. The data set is described as follows: Cytotoxicity against human A549 cells. Type of data set: functional. The conditions noted are these: for EC50: Homo sapiens, A549, read-out: ED50 (the source's name).
The next data set has as its system HT-29. Briefly: Cytotoxicity against human HT-29 cells. Type of data set: functional. Conditions: for EC50: Homo sapiens, HT-29, read-out: ED50 (the source's name).
Data set [2] in a line: Cytotoxicity against human 9KB cells. Type of data set: functional. Conditions: for EC50: Homo sapiens, 9KB, read-out: ED50 (the source's name).
The subject of data set [3] is Agrobacterium tumefaciens. The data set is described as follows: Antitumor activity assessed as inhibition of Agrobacterium tumefaciens-induced tumor formation by potato disk assay. Type of data set: functional.
Another data set deals with Artemia. The data set is described as follows: Toxicity against brine shrimp. Type of data set: organism-based. The conditions noted are these: in vivo.
Data set [4] is described as follows: Cytotoxicity against mouse 9PS cells. Type of data set: functional. Conditions: for EC50: Mus musculus, read-out: ED50 (the source's name).
Data set [5] is described as follows: In vivo antitumor activity against mouse 3PS cells at 0.25 mg/kg relative to control. Type of data set: functional.
The subject of data set [6] is Plasmodium falciparum. The data set is described as follows: Antiplasmodial activity against chloroquine-sensitive Plasmodium falciparum W2. It is filed as functional, organism-based.
The subject of data set [7] is Plasmodium falciparum. The data set is described as follows: Antiplasmodial activity against chloroquine-sensitive Plasmodium falciparum D6. It is filed as functional, organism-based.
Data set [8] deals with Calliphora vicina. Briefly: Pesticidal activity against Blowfly larvae assessed as mortality at 10000 ppm. Type of data set: functional.
Data set [9] in a line: Antimitotic activity in rat 9ASK cells assessed as reversal of astrocyte formation. It is filed as functional.
Data set [10] can be described thus: Antimitotic activity in rat 9ASK cells assessed as reversal of astrocyte formation at 100 ug/mL. Type of data set: functional.
The nature of data set [11]: (§1) In vivo antitumor activity against mouse 3PS cells at 0.95 mg/kg relative to control. It is filed as functional.
The subject of data set [12] is Calliphora vicina. Briefly: Pesticidal activity against Blowfly larvae assessed as mortality at 1% drug concentration. Type of data set: functional.
Another data set relates to Aedes aegypti. Briefly: Pesticidal activity against Aedes aegypti larvae assessed as mortality at 10 ppm. It is filed as functional.
The nature of data set [13]: as §1. Type of data set: functional. This is another data set of the same source.
For data set [14], the system named is L1210. Briefly: In vivo antitumor activity against mouse L1210 cells at 0.4 mg/kg relative to control. Type of data set: functional.
For data set [15], the system named is L1210. The data set is described as follows: Cytotoxicity against mouse L1210 cells. It is filed as functional. The conditions noted are these: read-out: ED50 (the source's name).
Data set [16] in a line: Antimitotic activity in rat 9ASK cells assessed as reversal of astrocyte formation at 10 ug/mL. It is filed as functional.

Usually T/C stands for the result in the treated group divided by that in the control group, in per cent. Take `CCCCCCCCCC[C@H](OC(C)=O)[C@H]1CC[C@H]([C@H]2CC[C@H]([C@H](O)CCCCCCCCCCCCC3=C[C@H](C)OC3=O)O2)O1` [UVARICIN]: the T/C in [1] is given as 157%.
With `CCCCCCCCCC[C@@H](OC(C)=O)[C@H]1CC[C@H]([C@@H](CC[C@@H](OC(C)=O)[C@@H]2CCC(CCCCCCC[C@@H](CC3=C[C@@H](C)OC3=O)OC(C)=O)O2)OC(C)=O)O1` (stereo not given in full) [BULLATALICIN TETRAACETATE], the EC50 in the data set with MCF7 was less than 0.001 µg/mL; with A549 it was less than 1 ng/mL; in the data set with HT-29, 1350 ng/mL (≈ 1.67 µM).
By LC50 is commonly meant the concentration that kills 50% of the test population. Take `CCCCCCCCCC[C@H](O)[C@H]1CC[C@H]([C@H](O)CC[C@H](O)[C@@H]2CC[C@@H](CCCCCCC[C@@H](O)CC3=C[C@H](C)OC3=O)O2)O1` [BULLATALICIN]: the EC50 was 2.34 µg/mL (≈ 3.66 µM) in the data set on MCF7 and more than 10000 ng/mL in data set [2]. The ED50 is 2.34 ×10⁻⁷ ug/ml with A549 and 8.8 ×10⁻⁶ ug/ml in the data set with HT-29. The “inhibition (INH)” value in data set [3] stood at 63%. The compound also showed a median lethal concentration (LC50) in the data set on Artemia of 0.154 ppm.
The compound `CCCCCCCCCCCC[C@H](O)[C@@H]1CC[C@@H]([C@@H](O)CCCCCC(=O)CCCCC2CC(CC(C)=O)C(=O)O2)O1` (stereo not given in full) [SQUAMONE] came in with an LC50 in the data set on Artemia of 2.1 ppm.
For `CCCC(O)CCC(O)CCC(O)C1CCC(C2CCC(C(O)CCCCCCCCCCCCCC3CC(C)OC3=O)O2)O1` (stereo not given) [DIHYDROCHERIMOLINE], the ED50 in [2] worked out at 2 ×10⁻⁸ ug/ml. Further, the values for the EC50 (in the data set on A549; in data set [4]; in the data set on HT-29) were 1 ng/mL (≈ 0.00156 µM), less than 0.01 µg/mL and 1 ng/mL (≈ 0.00156 µM), respectively. The compound further had an LC50 in the data set with Artemia of 4.02 ppm.
On to `CCCCCCCCCC[C@@H](O)[C@@H]1CC[C@H]([C@H](O)CC[C@H](O)[C@@H]2CC[C@@H](CCCCCCC[C@@H](O)CC3=C[C@H](C)OC3=O)O2)O1` [SYLVATICIN], for which the EC50 (in data set [2]; in the data set with A549; in the data set with HT-29) was less than 1 ng/mL each time. The LC50 with Artemia amounted to 26 ppm.
In [4], `CCCCCCCCCC[C@@H](O)[C@@H]1CC[C@H]([C@H]2CC[C@@H]([C@@H](O)CCCCCCCCCC[C@H](O)CC3=C[C@@H](C)OC3=O)O2)O1` [ROLLINIASTATIN 1] came in with an ED50 of 4.5 ×10⁻⁵ ug/ml. Besides, the T/C in [5] came to 128%.
With `CCCCCCCCCCCC[C@H](O)[C@@H]1CC[C@@H]([C@@H](O)CCCCC(O)CCCCCC2CC(CC(C)=O)C(=O)O2)O1` (stereo not given in full) [ISOANNONACIN], the EC50 in the data set on A549 worked out at 20 ng/mL (≈ 0.0335 µM); in data set [4], 3 µg/mL (≈ 5.03 µM); with HT-29, 2 ng/mL (≈ 0.00335 µM).
For `CCCCCCCCC[C@@H](O)[C@@H](O)[C@@H]1CC[C@@H]([C@@H]2CC[C@@H]([C@@H](O)CCCCCCCCCCCCC3=CC(C)OC3=O)O2)O1` (stereo not given in full) [ROLLINICIN], the ED50 in data set [4] is given as 2.9 ×10⁻⁸ ug/ml.
Broadly, the IC50 is the point on the concentration scale where inhibition reaches its midpoint. A high value points to weaker potency. Take `CN(C)[C@@H]1C(O)=C(C(N)=O)C(=O)[C@@]2(O)C(O)=C3C(=O)c4c(O)cccc4[C@@](C)(O)[C@H]3C[C@@H]12` [TETRACYCLINE]: the IC50 was 5.39 µg/mL (≈ 12.1 µM) in the data set on Plasmodium falciparum [6] and 3.36 µg/mL (≈ 7.57 µM) with Plasmodium falciparum [7].
Broadly, the IC90 is the concentration at which the effect reaches the 90% level. High values mean weaker potency, low ones greater potency. Consider `CCCCCCCCCCCC[C@@H](O)[C@H]1CC[C@H]([C@H](O)CCCC[C@H](O)CCCCC[C@@H](O)CC2=CC(C)OC2=O)O1` (stereo not given in full) [ANNONACIN], for which the Activity in the data set with Calliphora vicina [8] was found to be 100%; in data set [9], 51%; in data set [10], 15%; with Calliphora vicina [12], 100%; with Aedes aegypti it was 70%. Moreover, the EC50 in data set [2] stood at 1 ng/mL (≈ 0.00168 µM); in the data set on A549, 1 ng/mL (≈ 0.00168 µM); in the data set with HT-29, 3000 ng/mL (≈ 5.03 µM). Also, the ED50 in [4] stood at 1 ×10⁻⁵ ug/ml. In addition, the “inhibition (INH)” value in data set [3] is 72%. Moreover, in the data set on Artemia, the LC50 is listed as 3.3 ppm. In addition, the IC50 stood at 1.51 µg/mL (≈ 2.53 µM) with Plasmodium falciparum [6] and 1.3 µg/mL (≈ 2.18 µM) in the data set on Plasmodium falciparum [7]. Further, the IC90 in the data set on Plasmodium falciparum [6] stood at 74.7 µg/mL (≈ 125 µM); in the data set on Plasmodium falciparum [7] it was 12.4 µg/mL (≈ 20.9 µM). Moreover, the T/C in [11] and in [13] was 124% each time.
In the case of `CCCCCCC(O)CCCC(O)C1CCC(C2CCC(C(O)CCCCCCCCCCCCC3=CC(C)OC3=O)O2)O1` (stereo not given) [ISOROLLINICIN], in data set [4], the EC50 came to 0.01 µg/mL (≈ 0.0161 µM).
Turning to `CCCCCCCCCCCCCC[C@@H](O)[C@H]1CC[C@H]([C@H](O)CC[C@H](O)CCCCC[C@@H](O)CC2=C[C@H](C)OC2=O)O1` [GONIOTHALAMICIN], the Activity in the data set on Calliphora vicina [8] and in the data set with Aedes aegypti was 100% each time. Besides, the figures for the EC50 in data set [2] and in [4] were less than 10 ng/mL and less than 0.1 µg/mL, respectively. Besides, in [3], the “inhibition (INH)” value came to 68%. Also, the LC50 in the data set with Artemia came to 37 ppm. Further, the figures for the IC50 in the data set with Plasmodium falciparum [6] and in the data set with Plasmodium falciparum [7] were 1.59 µg/mL (≈ 2.66 µM) and 1.08 µg/mL (≈ 1.82 µM), respectively. Moreover, the IC90 stood at 23.6 µg/mL (≈ 39.6 µM) in the data set on Plasmodium falciparum [6] and 8.23 µg/mL (≈ 13.8 µM) with Plasmodium falciparum [7].
As to `CCCCCCCCCCCC[C@H](O)[C@@H]1CC[C@@H]([C@@H](O)CCCCC(=O)CCCCCC2CC(CC(C)=O)C(=O)O2)O1` (stereo not given in full) [ISOANNONACINONE], the figures for the EC50 (in the data set with A549; in [4]; with HT-29) were 70 ng/mL (≈ 0.118 µM), 0.5 µg/mL (≈ 0.841 µM) and 9 ng/mL (≈ 0.0151 µM), respectively.
Regarding `CCCCCCCCCC[C@H](O)[C@H]1CC[C@H]([C@H]2CC[C@H]([C@H](O)CCCCCCCCCC[C@@H]3CC(CC(C)=O)C(=O)O3)O2)O1` (stereo not given in full) [BULLATACINONE], the “inhibition (INH)” value in data set [3] amounted to 15%. The LC50 in the data set on Artemia is given as 0.003 ppm. For the same compound, the T/C in the data set with L1210 [14] came to 144%.
The compound `CCCCCCCCC[C@@H](OC(C)=O)[C@H](OC(C)=O)[C@@H]1CC[C@@H]([C@@H]2CC[C@@H]([C@@H](CCCCCCCCCCCCC3=CC(C)OC3=O)OC(C)=O)O2)O1` (stereo not given in full) [ROLLINICIN TRIACETATE] registered an ED50 in data set [4] of 2.6 ×10⁻⁴ ug/ml.
`CCCCCC[C@H](O)CCC[C@H](O)[C@H]1CC[C@H]([C@H]2CC[C@H]([C@H](O)CCCCCCCCCCCCC3=C[C@H](C)OC3=O)O2)O1` [SQUAMOCIN]: the EC50 in the data set with L1210 [15] was 0.58 µg/mL (≈ 0.931 µM).
For `CCCCCCCCCCCC[C@@H](O)[C@H]1CC[C@H]([C@H](O)CC[C@H](O)[C@@H]2CC[C@@H](CCCCC[C@@H](O)CC3=C[C@H](C)OC3=O)O2)O1` [GIGANTECIN], the ED50 is on record as 4.11 ×10⁻⁹ ug/ml in the data set on MCF7; less than 1 ×10⁻⁵ ug/ml in [2]; 2.19 ×10⁻⁷ ug/ml in the data set with A549; less than 1 ×10⁻⁵ ug/ml in data set [4]; 2.68 ×10⁻⁴ ug/ml in the data set on HT-29. In addition, the “inhibition (INH)” value in [3] was 83%. The same compound showed an LC50 in the data set on Artemia of 222 ppm. The Activity in data set [16] is listed as 31%.
Turning to `CCCCCCCCCCCC[C@@H](O)[C@H]1CC[C@H]([C@H](O)CCCCC(=O)CCCCC[C@@H](O)CC2=C[C@H](C)OC2=O)O1` [ANNONACINONE], the EC50 in the data set on A549 turned out to be 100 ng/mL (≈ 0.168 µM); with HT-29, 1000 ng/mL (≈ 1.68 µM). Further, in data set [4], the ED50 was 1 ×10⁻⁶ ug/ml.
The compound `CCCC(O)CCC(O)CCC(O)C1CCC(C2CCC(C(O)CCCCCCCCCCCCCC3=CC(C)OC3=O)O2)O1` (stereo not given) [CHERIMOLINE] showed an ED50 in data set [2] of 6 ×10⁻¹² ug/ml. The EC50 is 1 ng/mL (≈ 0.00157 µM) with A549, less than 0.01 µg/mL in data set [4] and more than 1 ng/mL with HT-29. Further, in the data set on Artemia, the LC50 is 1.24 ppm.
